According to ChEMBL document CHEMBL1151624, “Isolation of artemisinin (qinghaosu) from Artemisia annua growing in the United States” (J Nat Prod, 1984):
In brackets after ≈: the same amount, converted by molar mass.

Key:
Plasmodium falciparum [1] = assay: Antimalarial activity against chloroquine-sensitive Plasmodium falciparum CAMP by semiautomated micro dilution assay; assay type: functional, organism-based
Plasmodium falciparum [2] = assay: Antimalarial activity against chloroquine-resistant Plasmodium falciparum Smith by semiautomated micro dilution assay; assay type: functional, organism-based
Neisseria meningitidis = assay: Antimicrobial activity against Neisseria meningitidis; assay type: functional
Neisseria gonorrhoeae = assay: Antimicrobial activity against Neisseria gonorrhoeae; assay type: functional
Proteus sp. = assay: Antimicrobial activity against Proteus Sp.; assay type: functional; settings: Proteus sp. (in: enterobacteria)
Enterococcus faecalis = assay: Antimicrobial activity against Streptococcus faecalis; assay type: functional
Serratia marcescens = assay: Antimicrobial activity against Serratia marcescens; assay type: functional
Escherichia coli = assay: Antimicrobial activity against Escherichia coli; assay type: functional
Staphylococcus aureus = assay: Antimicrobial activity against Staphylococcus aureus; assay type: functional
Shigella dysenteriae = assay: Antimicrobial activity against Shigella dysenteriae; assay type: functional
Klebsiella = assay: Antimicrobial activity against Klebsiella; assay type: functional

Compound	IC50 (Plasmodium falciparum [1]) [mg/L]	IC50 (Plasmodium falciparum [2]) [mg/L]	MIC (Neisseria meningitidis) [mg/L]	MIC (Neisseria gonorrhoeae) [mg/L]	MIC (Proteus sp.) [mg/L]	MIC (Enterococcus faecalis) [mg/L]	MIC (Serratia marcescens) [mg/L]	MIC (Escherichia coli) [mg/L]	MIC (Staphylococcus aureus) [mg/L]	MIC (Shigella dysenteriae) [mg/L]	MIC (Klebsiella) [mg/L]
OC(c1cc(C(F)(F)F)nc2c(C(F)(F)F)cccc12)C1CCCCN1 (stereo not drawn) [MEFLOQUINE]	0.0035 (≈ 0.00925 µM)	0.0025 (≈ 0.00661 µM)									
C[C@@H]1CC[C@H]2[C@@H](C)C(=O)O[C@@H]3O[C@@]4(C)CC[C@@H]1[C@]32OO4 [ARTEMISININ]	< 0.0034	< 0.0034	> 1	> 1	> 32	> 32	> 32	> 32	> 32	> 32	> 32
